PubChem BioAssay (NCI)
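Cultured in 96-well plates, cells were exposed to test compound for 48 hours across five concentrations. Here, GI50 denotes the concentration required for 50% inhibition of growth. TGI: total growth inhibition.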

Tests used:
Assay in all cases: inhibition of tumour cell growth, NCI panel, 48 h
786-0 renal = test system: 786-0 renal
A498 renal = test system: A498 renal
A549 NSCLC = test system: A549 NSCLC
ACHN renal = test system: ACHN renal
BT-549 breast = test system: BT-549 breast
CAKI-1 renal = test system: CAKI-1 renal
CCRF-CEM leukemia = test system: CCRF-CEM leukemia
COLO 205 colon = test system: COLO 205 colon
DU-145 prostate = test system: DU-145 prostate
EKVX NSCLC = test system: EKVX NSCLC
HCC-2998 colon = test system: HCC-2998 colon
HCT-116 colon = test system: HCT-116 colon
HCT-15 colon = test system: HCT-15 colon
HL-60(TB) leukemia = test system: HL-60(TB) leukemia
HOP-62 NSCLC = test system: HOP-62 NSCLC
HS 578T breast = test system: HS 578T breast
HT29 colon = test system: HT29 colon
IGROV1 ovarian = test system: IGROV1 ovarian
K-562 leukemia = test system: K-562 leukemia
KM12 colon = test system: KM12 colon
LOX IMVI melanoma = test system: LOX IMVI melanoma
M14 melanoma = test system: M14 melanoma
MALME-3M melanoma = test system: MALME-3M melanoma
MCF7 breast = test system: MCF7 breast
MDA-MB-231 breast = test system: MDA-MB-231 breast
MDA-MB-435 = test system: MDA-MB-435
MOLT-4 leukemia = test system: MOLT-4 leukemia
NCI-H226 lung = test system: NCI-H226 lung
NCI-H23 lung = test system: NCI-H23 lung
NCI-H460 lung = test system: NCI-H460 lung
NCI/ADR-RES ovarian = test system: NCI/ADR-RES ovarian
OVCAR-3 ovarian = test system: OVCAR-3 ovarian
OVCAR-4 ovarian = test system: OVCAR-4 ovarian
OVCAR-5 ovarian = test system: OVCAR-5 ovarian
OVCAR-8 ovarian = test system: OVCAR-8 ovarian
PC-3 prostate = test system: PC-3 prostate
RPMI-8226 leukemia = test system: RPMI-8226 leukemia
RXF 393 renal = test system: RXF 393 renal
SF-268 CNS = test system: SF-268 CNS
SF-295 CNS = test system: SF-295 CNS
SF-539 CNS = test system: SF-539 CNS
SK-MEL-2 melanoma = test system: SK-MEL-2 melanoma
SK-MEL-28 melanoma = test system: SK-MEL-28 melanoma
SK-MEL-5 melanoma = test system: SK-MEL-5 melanoma
SK-OV-3 ovarian = test system: SK-OV-3 ovarian
SN12C renal = test system: SN12C renal
SNB-19 CNS = test system: SNB-19 CNS
SNB-75 CNS = test system: SNB-75 CNS
SR leukemia = test system: SR leukemia
SW-620 colon = test system: SW-620 colon
T-47D breast = test system: T-47D breast
TK-10 renal = test system: TK-10 renal
U251 CNS = test system: U251 CNS
UACC-257 melanoma = test system: UACC-257 melanoma
UACC-62 melanoma = test system: UACC-62 melanoma
UO-31 renal = test system: UO-31 renal
HOP-92 NSCLC = test system: HOP-92 NSCLC
NCI-H522 lung = test system: NCI-H522 lung

Compound: O=C(OC(=C(c1ccccc1)c1ccccc1)N1CCCC1=S)C(c1ccccc1)c1ccccc1
- TGI (786-0 renal): > 10 µM
- TGI (A498 renal): > 10 µM
- TGI (A549 NSCLC): > 10 µM
- TGI (ACHN renal): > 10 µM
- TGI (BT-549 breast): > 10 µM
- TGI (CAKI-1 renal): > 10 µM
- TGI (CCRF-CEM leukemia): > 10 µM
- TGI (COLO 205 colon): 5.5 µM
- TGI (DU-145 prostate): > 10 µM
- TGI (EKVX NSCLC): > 10 µM
- TGI (HCC-2998 colon): > 10 µM
- TGI (HCT-116 colon): > 10 µM
- TGI (HCT-15 colon): > 10 µM
- TGI (HL-60(TB) leukemia): > 10 µM
- TGI (HOP-62 NSCLC): > 10 µM
- TGI (HS 578T breast): > 10 µM
- TGI (HT29 colon): > 10 µM
- TGI (IGROV1 ovarian): > 10 µM
- TGI (K-562 leukemia): > 10 µM
- TGI (KM12 colon): > 10 µM
- TGI (LOX IMVI melanoma): > 10 µM
- TGI (M14 melanoma): > 10 µM
- TGI (MALME-3M melanoma): > 10 µM
- TGI (MCF7 breast): > 10 µM
- TGI (MDA-MB-231 breast): > 10 µM
- TGI (MDA-MB-435): > 10 µM
- TGI (MOLT-4 leukemia): > 10 µM
- TGI (NCI-H226 lung): > 10 µM
- TGI (NCI-H23 lung): > 10 µM
- TGI (NCI-H460 lung): > 10 µM
- TGI (NCI/ADR-RES ovarian): > 10 µM
- TGI (OVCAR-3 ovarian): > 10 µM
- TGI (OVCAR-4 ovarian): > 10 µM
- TGI (OVCAR-5 ovarian): > 10 µM
- TGI (OVCAR-8 ovarian): > 10 µM
- TGI (PC-3 prostate): > 10 µM
- TGI (RPMI-8226 leukemia): > 10 µM
- TGI (RXF 393 renal): > 10 µM
- TGI (SF-268 CNS): > 10 µM
- TGI (SF-295 CNS): > 10 µM
- TGI (SF-539 CNS): > 10 µM
- TGI (SK-MEL-2 melanoma): > 10 µM
- TGI (SK-MEL-28 melanoma): > 10 µM
- TGI (SK-MEL-5 melanoma): > 10 µM
- TGI (SK-OV-3 ovarian): > 10 µM
- TGI (SN12C renal): > 10 µM
- TGI (SNB-19 CNS): > 10 µM
- TGI (SNB-75 CNS): > 10 µM
- TGI (SR leukemia): > 10 µM
- TGI (SW-620 colon): > 10 µM
- TGI (T-47D breast): > 10 µM
- TGI (TK-10 renal): > 10 µM
- TGI (U251 CNS): > 10 µM
- TGI (UACC-257 melanoma): > 10 µM
- TGI (UACC-62 melanoma): > 10 µM
- TGI (UO-31 renal): > 10 µM

Compound: COc1ccc([N+](=O)[O-])c(S(=O)(=O)c2ccc(Cl)cc2)n1
- GI50 (786-0 renal): 2.51 µM
- TGI (786-0 renal): 7.18 µM
- GI50 (A549 NSCLC): 18.5 µM
- TGI (A549 NSCLC): 41.9 µM
- GI50 (ACHN renal): 2.08 µM
- TGI (ACHN renal): 4.11 µM
- GI50 (BT-549 breast): 2.75 µM
- TGI (BT-549 breast): 8.97 µM
- GI50 (CAKI-1 renal): 1.61 µM
- TGI (CAKI-1 renal): 3.01 µM
- GI50 (CCRF-CEM leukemia): 2.93 µM
- TGI (CCRF-CEM leukemia): 13.8 µM
- GI50 (COLO 205 colon): 1.96 µM
- TGI (COLO 205 colon): 3.88 µM
- GI50 (DU-145 prostate): 9.63 µM
- TGI (DU-145 prostate): 21.3 µM
- GI50 (HCC-2998 colon): 8.38 µM
- TGI (HCC-2998 colon): 23.8 µM
- GI50 (HCT-116 colon): 2.9 µM
- TGI (HCT-116 colon): 9.33 µM
- GI50 (HCT-15 colon): 2.05 µM
- TGI (HCT-15 colon): 5.22 µM
- GI50 (HL-60(TB) leukemia): 6.8 µM
- TGI (HL-60(TB) leukemia): 41 µM
- GI50 (HOP-62 NSCLC): 16.6 µM
- TGI (HOP-62 NSCLC): 30.5 µM
- GI50 (HOP-92 NSCLC): 2 µM
- TGI (HOP-92 NSCLC): 6.17 µM
- GI50 (HS 578T breast): 13 µM
- TGI (HS 578T breast): 51.1 µM
- GI50 (HT29 colon): 3.34 µM
- TGI (HT29 colon): 13.9 µM
- GI50 (IGROV1 ovarian): 12.2 µM
- TGI (IGROV1 ovarian): 31.3 µM
- GI50 (K-562 leukemia): 3.02 µM
- TGI (K-562 leukemia): > 100 µM
- GI50 (KM12 colon): 14 µM
- TGI (KM12 colon): 27.8 µM
- GI50 (LOX IMVI melanoma): 1.98 µM
- TGI (LOX IMVI melanoma): 4.19 µM
- GI50 (M14 melanoma): 3.05 µM
- TGI (M14 melanoma): 10.1 µM
- GI50 (MALME-3M melanoma): 2 µM
- TGI (MALME-3M melanoma): 4.08 µM
- GI50 (MCF7 breast): 2.24 µM
- TGI (MCF7 breast): 7.29 µM
- GI50 (MDA-MB-231 breast): 2.83 µM
- TGI (MDA-MB-231 breast): 7.43 µM
- GI50 (MDA-MB-435): 1.75 µM
- TGI (MDA-MB-435): 3.66 µM
- GI50 (MOLT-4 leukemia): 3.59 µM
- TGI (MOLT-4 leukemia): > 100 µM
- GI50 (NCI-H226 lung): 10.2 µM
- TGI (NCI-H226 lung): 36 µM
- GI50 (NCI-H23 lung): 4.58 µM
- TGI (NCI-H23 lung): 29.2 µM
- GI50 (NCI-H460 lung): 14.6 µM
- TGI (NCI-H460 lung): 30.1 µM
- GI50 (NCI-H522 lung): 1.86 µM
- TGI (NCI-H522 lung): 3.77 µM
- GI50 (NCI/ADR-RES ovarian): 4.93 µM
- TGI (NCI/ADR-RES ovarian): > 100 µM
- GI50 (OVCAR-3 ovarian): 2.34 µM
- TGI (OVCAR-3 ovarian): 5.31 µM
- GI50 (OVCAR-4 ovarian): 2.32 µM
- TGI (OVCAR-4 ovarian): 6.51 µM
- GI50 (OVCAR-5 ovarian): 3.13 µM
- TGI (OVCAR-5 ovarian): 12.3 µM
- GI50 (OVCAR-8 ovarian): 3.67 µM
- TGI (OVCAR-8 ovarian): 15.9 µM
- GI50 (PC-3 prostate): 17.3 µM
- TGI (PC-3 prostate): 33.8 µM
- GI50 (RPMI-8226 leukemia): 3.38 µM
- TGI (RPMI-8226 leukemia): 51.9 µM
- GI50 (RXF 393 renal): 4.45 µM
- TGI (RXF 393 renal): 16.2 µM
- GI50 (SF-268 CNS): 4.57 µM
- TGI (SF-268 CNS): 17.8 µM
- GI50 (SF-295 CNS): 13.1 µM
- TGI (SF-295 CNS): 28 µM
- GI50 (SF-539 CNS): 3.39 µM
- TGI (SF-539 CNS): 12.3 µM
- GI50 (SK-MEL-2 melanoma): 11.4 µM
- TGI (SK-MEL-2 melanoma): 24.3 µM
- GI50 (SK-MEL-28 melanoma): 3.57 µM
- TGI (SK-MEL-28 melanoma): 14.2 µM
- GI50 (SK-MEL-5 melanoma): 12 µM
- TGI (SK-MEL-5 melanoma): 24.9 µM
- GI50 (SK-OV-3 ovarian): 15.1 µM
- TGI (SK-OV-3 ovarian): 31.9 µM
- GI50 (SN12C renal): 3.82 µM
- TGI (SN12C renal): 16.8 µM
- GI50 (SNB-19 CNS): 13 µM
- TGI (SNB-19 CNS): 29.2 µM
- GI50 (SNB-75 CNS): 11 µM
- TGI (SNB-75 CNS): 23.6 µM
- GI50 (SR leukemia): 3 µM
- TGI (SR leukemia): > 100 µM
- GI50 (SW-620 colon): 2.06 µM
- TGI (SW-620 colon): 4.65 µM
- GI50 (T-47D breast): 2.12 µM
- TGI (T-47D breast): 5.41 µM
- GI50 (TK-10 renal): 3.57 µM
- TGI (TK-10 renal): 11.7 µM
- GI50 (U251 CNS): 8.69 µM
- TGI (U251 CNS): 21.6 µM
- GI50 (UACC-257 melanoma): 11.3 µM
- TGI (UACC-257 melanoma): 23.7 µM
- GI50 (UACC-62 melanoma): 3.56 µM
- TGI (UACC-62 melanoma): 13.3 µM
- GI50 (UO-31 renal): 2.97 µM
- TGI (UO-31 renal): 10.2 µM
